Structures are written as SMILES.

The first experiment relates to HBV (encapsidated HBV DNA, HepG2.2.15 cells). Put plainly: HBV replication inhibition assay, BDNA assay in HepG2.2.15 cells. It is filed as cell-based. The settings on record: Activity in BDNA-assay. The method, boiled down: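 Encapsidated HBV DNA in DNase-treated, proteinase K-lysed supernatant was measured by branched DNA after 6 days' compound exposure, refreshed on day 3, of HepG2.2.15 cells in 0.5% DMSO. Signals normalized to DMSO-treated wells; EC50 from nonlinear regression of inhibition against log concentration.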
One may read the EC50 as the concentration needed to bring the measured effect to its halfway point. Regarding `CN1CC(CNCC(F)F)Cn2nc3c(c2C1=O)CN(C(=O)Nc1ccc(F)c(C(F)(F)F)c1)CC3` (single isomer, unassigned) [Compound 119_E2, (S*)-8-(((2,2-difluoroethyl)amino)methyl)-N-(4-fluoro-3-(trifluoromethyl)phenyl)-10-methyl-11-oxo-1,3,4,7,8,9,10,11-octahydro-2H-pyrido[4′,3′:3,4]pyrazolo[1,5-a][1,4]diazepine-2-carboxamide], the EC50 was 1 to 100 nM. Same read-out and setting: with `C=CC(O)C1CN(C)C(=O)c2c3c(nn2C1)CC(C)N(C(=O)Nc1ccc(F)c(C#N)c1)C3` (single isomer, unassigned) [Compound 123_D1, (3R,8S*)—N-(3-cyano-4-fluorophenyl)-8-((R*)-1-hydroxyallyl)-3,10-dimethyl-11-oxo-1,3,4,7,8,9,10,11-octahydro-2H-pyrido[4′,3′:3,4]pyrazolo[1,5-a][1,4]diazepine-2-carboxamide] the figure was 1 to 100 nM; with `C=CC(O)C1CN(C)C(=O)c2c3c(nn2C1)CC(C)N(C(=O)Nc1ccc(F)c(C#N)c1)C3` (single isomer, unassigned) [Compound 123_D2, (3R,8S*)—N-(3-cyano-4-fluorophenyl)-8-((S*)-1-hydroxyallyl)-3,10-dimethyl-11-oxo-1,3,4,7,8,9,10,11-octahydro-2H-pyrido[4′,3′:3,4]pyrazolo[1,5-a][1,4]diazepine-2-carboxamide], 100 to 500 nM. Still for that read-out and setting: then `CN1CC(CNCC(F)F)Cn2nc3c(c2C1=O)CN(C(=O)Nc1cc(Br)c(F)cc1F)CC3` (single isomer, unassigned) [Compound 125_E1, (R*)—N-(5-bromo-2,4-difluorophenyl)-8-(((2,2-difluoroethyl)amino)methyl)-10-methyl-11-oxo-1,3,4,7,8,9,10,11-octahydro-2H-pyrido[4′,3′:3,4]pyrazolo[1,5-a][1,4]diazepine-2-carboxamide], with 100 to 500 nM. Still for that read-out and setting: then `CN1CC(CNCC(F)F)Cn2nc3c(c2C1=O)CN(C(=O)Nc1cc(Br)c(F)cc1F)CC3` (single isomer, unassigned) [Compound 125_E2, (S*)—N-(5-bromo-2,4-difluorophenyl)-8-(((2,2-difluoroethyl)amino)methyl)-10-methyl-11-oxo-1,3,4,7,8,9,10,11-octahydro-2H-pyrido[4′,3′:3,4]pyrazolo[1,5-a][1,4]diazepine-2-carboxamide], with 1 to 100 nM; and `CN1CC(CNCC(F)F)Cn2nc3c(c2C1=O)CN(C(=O)Nc1cc(Cl)c(F)cc1F)CC3` (single isomer, unassigned) [Compound 126_E2, (S*)—N-(5-chloro-2,4-difluorophenyl)-8-(((2,2-difluoroethyl)amino)methyl)-10-methyl-11-oxo-1,3,4,7,8,9,10,11-octahydro-2H-pyrido[4′,3′:3,4]pyrazolo[1,5-a][1,4]diazepine-2-carboxamide], with 100 to 500 nM; and `CN1CC(CNCC(F)F)Cn2nc3c(c2C1=O)CN(C(=O)Nc1ccc(F)c(C#N)c1F)CC3` (single isomer, unassigned) [Compound 127_E1, (R*)—N-(3-cyano-2,4-difluorophenyl)-8-(((2,2-difluoroethyl)amino)methyl)-10-methyl-11-oxo-1,3,4,7,8,9,10,11-octahydro-2H-pyrido[4′,3′:3,4]pyrazolo[1,5-a][1,4]diazepine-2-carboxamide], with 500 to 1000 nM. Turning to `CN1CC(CNCC(F)F)Cn2nc3c(c2C1=O)CN(C(=O)Nc1ccc(F)c(C#N)c1F)CC3` (single isomer, unassigned) [Compound 127_E2, (S*)—N-(3-cyano-2,4-difluorophenyl)-8-(((2,2-difluoroethyl)amino)methyl)-10-methyl-11-oxo-1,3,4,7,8,9,10,11-octahydro-2H-pyrido[4′,3′:3,4]pyrazolo[1,5-a][1,4]diazepine-2-carboxamide], the EC50 lay within 1 to 100 nM. Regarding `CN1CC(CNCC(F)F)Cn2nc3c(c2C1=O)CN(C(=O)Nc1ccc(F)c(Cl)c1F)CC3` (single isomer, unassigned) [Compound 128_E1, (R*)—N-(3-chloro-2,4-difluorophenyl)-8-(((2,2-difluoroethyl)amino)methyl)-10-methyl-11-oxo-1,3,4,7,8,9,10,11-octahydro-2H-pyrido[4′,3′:3,4]pyrazolo[1,5-a][1,4]diazepine-2-carboxamide], the EC50 fell in the range of 100 to 500 nM. On the same count and under the same terms, with `CN1CC(CNCC(F)F)Cn2nc3c(c2C1=O)CN(C(=O)Nc1ccc(F)c(Cl)c1F)CC3` (single isomer, unassigned) [Compound 128_E2, (S*)—N-(3-chloro-2,4-difluorophenyl)-8-(((2,2-difluoroethyl)amino)methyl)-10-methyl-11-oxo-1,3,4,7,8,9,10,11-octahydro-2H-pyrido[4′,3′:3,4]pyrazolo[1,5-a][1,4]diazepine-2-carboxamide] the figure was 1 to 100 nM; with `CN1CC(CNCC(F)F)Cn2nc3c(c2C1=O)CN(C(=O)Nc1ccc(F)c(Br)c1F)CC3` (single isomer, unassigned) [Compound 129_E1, (R*)—N-(3-bromo-2,4-difluorophenyl)-8-(((2,2-difluoroethyl)amino)methyl)-10-methyl-11-oxo-1,3,4,7,8,9,10,11-octahydro-2H-pyrido[4′,3′:3,4]pyrazolo[1,5-a][1,4]diazepine-2-carboxamide], 100 to 500 nM. Same read-out and setting: with `CN1CC(CNCC(F)F)Cn2nc3c(c2C1=O)CN(C(=O)Nc1ccc(F)c(Br)c1F)CC3` (single isomer, unassigned) [Compound 129_E2, (S*)—N-(3-bromo-2,4-difluorophenyl)-8-(((2,2-difluoroethyl)amino)methyl)-10-methyl-11-oxo-1,3,4,7,8,9,10,11-octahydro-2H-pyrido[4′,3′:3,4]pyrazolo[1,5-a][1,4]diazepine-2-carboxamide] the figure was 1 to 100 nM; with `CN1CC(CNCC(F)F)Cn2nc3c(c2C1=O)CN(C(=O)Nc1ccc(F)c(Br)c1)CC3` (single isomer, unassigned) [Compound 130_E2, (S*)—N-(3-bromo-4-fluorophenyl)-8-(((2,2-difluoroethyl)amino)methyl)-10-methyl-11-oxo-1,3,4,7,8,9,10,11-octahydro-2H-pyrido[4′,3′:3,4]pyrazolo[1,5-a][1,4]diazepine-2-carboxamide], 1 to 100 nM; with `CN1CC(CNCC(F)F)Cn2nc3c(c2C1=O)CN(C(=O)Nc1ccc(F)c(C(F)(F)F)c1F)CC3` (single isomer, unassigned) [Compound 131_E2, (S*)—N-(2,4-difluoro-3-(trifluoromethyl)phenyl)-8-(((2,2-difluoroethyl)amino)methyl)-10-methyl-11-oxo-1,3,4,7,8,9,10,11-octahydro-2H-pyrido[4′,3′:3,4]pyrazolo[1,5-a][1,4]diazepine-2-carboxamide], 100 to 500 nM. The same measure, in the same setting: then `C[C@@H]1Cc2nn3c(c2CN1C(=O)Nc1ccc(F)c(C(F)(F)F)c1)C(=O)N(C)CC(F)(CO)C3` (single isomer, unassigned) [Compound 133_D2, (3R,8S*)-8-fluoro-N-(4-fluoro-3-(trifluoromethyl)phenyl)-8-(hydroxymethyl)-3,10-dimethyl-11-oxo-1,3,4,7,8,9,10,11-octahydro-2H-pyrido[4′,3′:3,4]pyrazolo[1,5-a][1,4]diazepine-2-carboxamide_D2], with 1 to 100 nM; and `C[C@@H]1Cc2nn3c(c2CN1C(=O)Nc1ccc(F)c(C#N)c1)C(=O)N(C)CC(F)C3` (single isomer, unassigned) [Compound 137_D2, (3R,8S*)-N-(3-Cyano-4-fluorophenyl)-8-fluoro-3,10-dimethyl-11-oxo-1,3,4,7,8,9,10,11-octahydro-2H-pyrido[4′,3′:3,4]pyrazolo[1,5-a][1,4]diazepine-2-carboxamide], with 1 to 100 nM.

Still in this experiment, the particulars now being: Hepatitis B virus, HepG2.2.15, Activity in BDNA-assay.
For `CN1CC(CNCC(F)F)Cn2nc3c(c2C1=O)CN(C(=O)Nc1cc(Cl)c(F)cc1F)CC3` (single isomer, unassigned) [Compound 126_E1, (R*)—N-(5-chloro-2,4-difluorophenyl)-8-(((2,2-difluoroethyl)amino)methyl)-10-methyl-11-oxo-1,3,4,7,8,9,10,11-octahydro-2H-pyrido[4′,3′:3,4]pyrazolo[1,5-a][1,4]diazepine-2-carboxamide], the EC50 lay in the range of 100 to 500 nM. On to `CN1CC(CNCC(F)F)Cn2nc3c(c2C1=O)CN(C(=O)Nc1ccc(F)c(Br)c1)CC3` (single isomer, unassigned) [Compound 130_E1, (R*)—N-(3-bromo-4-fluorophenyl)-8-(((2,2-difluoroethyl)amino)methyl)-10-methyl-11-oxo-1,3,4,7,8,9,10,11-octahydro-2H-pyrido[4′,3′:3,4]pyrazolo[1,5-a][1,4]diazepine-2-carboxamide], for which the EC50 lay in the range of 1 to 100 nM. The same measure, in the same setting: with `CN1CC(CNCC(F)F)Cn2nc3c(c2C1=O)CN(C(=O)Nc1ccc(F)c(C(F)(F)F)c1F)CC3` (single isomer, unassigned) [Compound 131_E1, (R*)—N-(2,4-difluoro-3-(trifluoromethyl)phenyl)-8-(((2,2-difluoroethyl)amino)methyl)-10-methyl-11-oxo-1,3,4,7,8,9,10,11-octahydro-2H-pyrido[4′,3′:3,4]pyrazolo[1,5-a][1,4]diazepine-2-carboxamide] the figure was 100 to 500 nM; with `C[C@@H]1Cc2nn3c(c2CN1C(=O)Nc1ccc(F)c(C(F)(F)F)c1)C(=O)N(C)CC(F)(CO)C3` (single isomer, unassigned) [Compound 133_D1, (3R,8R*)-8-fluoro-N-(4-fluoro-3-(trifluoromethyl)phenyl)-8-(hydroxymethyl)-3,10-dimethyl-11-oxo-1,3,4,7,8,9,10,11-octahydro-2H-pyrido[4′,3′:3,4]pyrazolo[1,5-a][1,4]diazepine-2-carboxamide_D1], 1 to 100 nM; with `C[C@@H]1Cc2nn3c(c2CN1C(=O)Nc1ccc(F)c(C#N)c1)C(=O)N(C)CC(F)C3` (single isomer, unassigned) [Compound 137_D1, (3R,8R*)—N-(3-cyano-4-fluorophenyl)-8-fluoro-3,10-dimethyl-11-oxo-1,3,4,7,8,9,10,11-octahydro-2H-pyrido[4′,3′:3,4]pyrazolo[1,5-a][1,4]diazepine-2-carboxamide_D1], 1 to 100 nM.

The values are drawn from US10975077B2 (Novira Therapeutics, Inc., priority 2016, dated 2021).
